Measurements taken from patent publication EP0483928A1, “2-Saccharinylmethyl aryl carboxylates useful as proteolytic enzyme inhibitors and compositions and method of use” (STERLING WINTHROP INC., priority 1990, dated 1992).

Target: T1, human leukocyte elastase (HLE) (Homo sapiens, UniProt P08246)
T1 sequence (P08246 30-267): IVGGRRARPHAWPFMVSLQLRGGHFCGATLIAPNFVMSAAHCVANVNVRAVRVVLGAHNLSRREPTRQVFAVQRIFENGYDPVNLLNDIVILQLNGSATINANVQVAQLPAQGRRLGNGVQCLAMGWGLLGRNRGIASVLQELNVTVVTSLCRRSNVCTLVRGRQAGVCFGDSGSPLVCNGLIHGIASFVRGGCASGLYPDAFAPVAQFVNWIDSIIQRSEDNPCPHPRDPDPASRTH
Assay: Inhibition of human leukocyte elastase: rate of inactivation kon and inhibition constant Ki* (koff/kon)
Format: biochemical
Conditions: Ki* = koff/kon, calculated from measured koff and kon; not a truly reversible Ki; read-out: K*i
Method: Thus, instead of measuring a Ki, a Ki* is calculated which is defined as the ratio of the koff/kon, the rate of reactivation of the enzyme to the rate of inactivation of the enzyme. The values of koff and kon are measured and Ki* is then calculated.
The rate of inactivation, kon, of enzymatic activity was determined for the compounds tested by measuring the enzyme activity of an aliquot of the respective enzyme as a function of time after addition of the test compound. […] The rate of inactivation is then equal to [formula] where [I] is the concentration of the inhibiting compound.
The reactivation constant, koff, is similarly determined, and the inhibition constant, Ki*, is then calculated as Ki * = koff /kon [formula]

Ki [pM]	Structure (SMILES)
56	CC(C)c1cc(OCC(=O)OCc2ccccc2)cc2c1C(=O)N(COC(=O)c1c(Cl)cccc1Cl)S2(=O)=O [Example 7B, 6-(2-benzyloxy-2-oxoethoxy)-4-isopropyl-2-saccharinylmethyl 2,6-dichlorobenzoate]
600	O=C(OCN1C(=O)C2=C(C3CCC2C3)S1(=O)=O)c1c(Cl)cccc1Cl (stereo not shown) [Example 8, 2-(2,6-dichlorobenzoyloxymethyl)4,5,6,7-tetrahydro-4,7-methano-1,2-benzisothiazol-3(2H)-one 1,1-dioxide]
2000	CC(C)C1CCCC2=C1C(=O)N(COC(=O)c1c(Cl)ccc(S(=O)(=O)N(C)CCN(C)C)c1Cl)S2(=O)=O (stereo not shown) [Example 9E, 4-isopropyl-4,5,6,7-tetrahydro-2-saccharinylmethyl 2,6-dichloro-3-[[2-(N,N-dimethylamino)ethyl]-N-methylaminosulfonyl]benzoate hydrochoride]
200	CN(C)c1cccc2c1C(=O)N(COC(=O)c1c(Cl)cccc1Cl)S2(=O)=O [Example 11, 4-dimethylamino-2-saccharinylmethyl 2,6-dichlorobenzoate]
